Tests used:
Test in all cases: Kinase Hotspot radiolabel assay
Format in all cases: biochemical
Settings in all cases: read-out: % Residual Activity
MNK1 = molecular target: T1, MNK1 (Homo sapiens, UniProt Q9BUB5)
T1 construct: purchased Reaction Biology Corporation (Kinase HotSpot)
Procedure: (§1) Kinase assay. The ADP Glo^TM kinase assay (Promega, Madison, WI, USA) was used to assess the inhibition by CDDD11-8 of CDKs 1, 2, 4, 6, 7, and 9, as well as the mutant isoforms of FLT3. The assays were performed in accord with the manufacturer’s protocol (Promega) as described previously. Briefly, serial three-fold dilutions of CDDD11-8 were prepared in 100% DMSO from a 2 mM stock solution, followed by 1:40 dilution into Milli-Q water. Subsequently, 1 µL of each sample was incubated with 4 µL of kinase mixture containing a particular CDK enzyme and its substrate, standard kinase buffer [3 mM MgCl2, 50 mM HEPES-NaOH pH 7.5, 3 mM MnCl2, 3 µM Na-orthovanadate, 1 mM dithiothreitol (DTT)], kinase dilution buffer (containing 0.25 mg/mL PEG20,000, 50 mM HEPES-NaOH pH 7.5, 1 mM DTT), and ATP at 37 °C for 30 to 40 min. The final reaction mixture contained 0.5% DMSO in all samples, and the applied kinase concentrations were 1, 1, 10, 40, 20, and 50 nM for CDK1, 2, 4, 6, 7, and 9, respectively. The reaction was stopped by adding ADP-Glo reagent and the mixture was incubated further in the dark at room temperature for 40 min. As a final step, kinase detection reagent was added to each mixture and incubated at room temperature for 30 to 60 min. Luminescence was read using an EnVision® multilabel plate reader (PerkinElmer, Beaconsfield, UK), and half-maximum inhibitory concentrations (IC50) were calculated using a non-linear regression model with a variable slope, plotting log (inhibitor concentration) vs. response using the following formula: Ar%=Bottom+Top−Bottom/1+Inhibitor Concentration/IC50^HillSlope where the relative activity Ar (%) is the signal relative to the controls, IC50 is the half maximum concentration, Hillslope is the steepness of the dose-response curve, Top and Bottom are plateaus reflecting the maximum and minimum in responses on the Y-axis (GraphPad Prism version 7, San Diego, CA, USA). Ki values were calculated from the IC50 using the Cheng−Prusoff equation [32]. Extensive specificity assessment was carried out by Reaction Biology Corporation (Malvern, PA, USA) with 369 kinases using 1 µM CDDD11-8 concentration in a Kinase Hotspot radiolabel assay (for experimental details, please see (Reaction Biology https://www.reactionbiology.com/). Subsequently, Ki values were determined for kinases with greater than 90% inhibition.

NEK8 = molecular target: T2, NEK8 (Homo sapiens, UniProt Q86SG6)
T2 construct: purchased Reaction Biology Corporation (Kinase HotSpot)
Procedure: as §1

JNK1 = molecular target: T3, JNK1 (Homo sapiens, UniProt P45983)
T3 construct: purchased Reaction Biology Corporation (Kinase HotSpot)
Procedure: as §1

RAF1 = molecular target: T4, RAF1 (Homo sapiens, UniProt P04049)
T4 construct: purchased Reaction Biology Corporation (Kinase HotSpot)
Procedure: as §1

DCAMKL2 = molecular target: T5, DCAMKL2 (Homo sapiens, UniProt Q8N568)
T5 construct: purchased Reaction Biology Corporation (Kinase HotSpot)
Procedure: as §1

ALK4/ACVR1B = molecular target: T6, ALK4/ACVR1B (Homo sapiens, UniProt P36896)
T6 construct: purchased Reaction Biology Corporation (Kinase HotSpot)
Procedure: as §1

STK21/CIT = molecular target: T7, STK21/CIT (Homo sapiens, UniProt O14578)
T7 construct: purchased Reaction Biology Corporation (Kinase HotSpot)
Procedure: as §1

GRK3 = molecular target: T8, GRK3 (Homo sapiens, UniProt P35626)
T8 construct: purchased Reaction Biology Corporation (Kinase HotSpot)
Procedure: as §1

EGFR = molecular target: T9, EGFR (Homo sapiens, UniProt P00533)
T9 construct: purchased Reaction Biology Corporation (Kinase HotSpot)
Procedure: as §1

RIPK3 = molecular target: T10, RIPK3 (Homo sapiens, UniProt Q9Y572)
T10 construct: purchased Reaction Biology Corporation (Kinase HotSpot)
Procedure: as §1

PBK/TOPK = molecular target: T11, PBK/TOPK (Homo sapiens, UniProt Q96KB5)
T11 construct: purchased Reaction Biology Corporation (Kinase HotSpot)
Procedure: as §1

ALK1/ACVRL1 = molecular target: T12, ALK1/ACVRL1 (Homo sapiens, UniProt P37023)
T12 construct: purchased Reaction Biology Corporation (Kinase HotSpot)
Procedure: as §1

SLK/STK2 = molecular target: T13, SLK/STK2 (Homo sapiens, UniProt Q9H2G2)
T13 construct: purchased Reaction Biology Corporation (Kinase HotSpot)
Procedure: as §1

PKG1b = molecular target: T14, PKG1b (Homo sapiens, UniProt Q13976)
T14 construct: purchased Reaction Biology Corporation (Kinase HotSpot)
Procedure: as §1

MYO3A = molecular target: T15, MYO3A (Homo sapiens, UniProt Q8NEV4)
T15 construct: purchased Reaction Biology Corporation (Kinase HotSpot)
Procedure: as §1

EPHA8 = molecular target: T16, EPHA8 (Homo sapiens, UniProt P29322)
T16 construct: purchased Reaction Biology Corporation (Kinase HotSpot)
Procedure: as §1

CDK9/cyclin K = molecular target: T17, CDK9/cyclin K (Homo sapiens, UniProt P50750)
T17 construct: purchased Reaction Biology Corporation (Kinase HotSpot)
Procedure: as §1

ROCK1 = molecular target: T18, ROCK1 (Homo sapiens, UniProt Q13464)
T18 construct: purchased Reaction Biology Corporation (Kinase HotSpot)
Procedure: as §1

LCK = molecular target: T19, LCK (Homo sapiens, UniProt P06239)
T19 construct: purchased Reaction Biology Corporation (Kinase HotSpot)
Procedure: as §1

KDR/VEGFR2 = molecular target: T20, KDR/VEGFR2 (Homo sapiens, UniProt P35968)
T20 construct: purchased Reaction Biology Corporation (Kinase HotSpot)
Procedure: as §1

BRAF = molecular target: T21, BRAF (Homo sapiens, UniProt P15056)
T21 construct: purchased Reaction Biology Corporation (Kinase HotSpot)
Procedure: as §1

ALK3/BMPR1A = molecular target: T22, ALK3/BMPR1A (Homo sapiens, UniProt P36894)
T22 construct: purchased Reaction Biology Corporation (Kinase HotSpot)
Procedure: as §1

SRPK1 = molecular target: T23, SRPK1 (Homo sapiens, UniProt Q96SB4)
T23 construct: purchased Reaction Biology Corporation (Kinase HotSpot)
Procedure: as §1

BRK = molecular target: T24, BRK (Homo sapiens, UniProt Q13882)
T24 construct: purchased Reaction Biology Corporation (Kinase HotSpot)
Procedure: as §1

CDK18/cyclin Y (PCTK3) = molecular target: T25, CDK18/cyclin Y (PCTK3) (Homo sapiens, UniProt Q07002)
T25 construct: purchased Reaction Biology Corporation (Kinase HotSpot)
Procedure: as §1

IRAK1 = molecular target: T26, IRAK1 (Homo sapiens, UniProt P51617)
T26 construct: purchased Reaction Biology Corporation (Kinase HotSpot)
Procedure: as §1

CDK7/cyclin H = molecular target: T27, CDK7/cyclin H (Homo sapiens, UniProt P50613)
T27 construct: purchased Reaction Biology Corporation (Kinase HotSpot)
Procedure: as §1

MST3/STK24 = molecular target: T28, MST3/STK24 (Homo sapiens, UniProt Q9Y6E0)
T28 construct: purchased Reaction Biology Corporation (Kinase HotSpot)
Procedure: as §1

STK39/STLK3 = molecular target: T29, STK39/STLK3 (Homo sapiens, UniProt Q9UEW8)
T29 construct: purchased Reaction Biology Corporation (Kinase HotSpot)
Procedure: as §1

ZIPK/DAPK3 = molecular target: T30, ZIPK/DAPK3 (Homo sapiens, UniProt O43293)
T30 construct: purchased Reaction Biology Corporation (Kinase HotSpot)
Procedure: as §1

T23 sequence (Q96SB4 whole entry): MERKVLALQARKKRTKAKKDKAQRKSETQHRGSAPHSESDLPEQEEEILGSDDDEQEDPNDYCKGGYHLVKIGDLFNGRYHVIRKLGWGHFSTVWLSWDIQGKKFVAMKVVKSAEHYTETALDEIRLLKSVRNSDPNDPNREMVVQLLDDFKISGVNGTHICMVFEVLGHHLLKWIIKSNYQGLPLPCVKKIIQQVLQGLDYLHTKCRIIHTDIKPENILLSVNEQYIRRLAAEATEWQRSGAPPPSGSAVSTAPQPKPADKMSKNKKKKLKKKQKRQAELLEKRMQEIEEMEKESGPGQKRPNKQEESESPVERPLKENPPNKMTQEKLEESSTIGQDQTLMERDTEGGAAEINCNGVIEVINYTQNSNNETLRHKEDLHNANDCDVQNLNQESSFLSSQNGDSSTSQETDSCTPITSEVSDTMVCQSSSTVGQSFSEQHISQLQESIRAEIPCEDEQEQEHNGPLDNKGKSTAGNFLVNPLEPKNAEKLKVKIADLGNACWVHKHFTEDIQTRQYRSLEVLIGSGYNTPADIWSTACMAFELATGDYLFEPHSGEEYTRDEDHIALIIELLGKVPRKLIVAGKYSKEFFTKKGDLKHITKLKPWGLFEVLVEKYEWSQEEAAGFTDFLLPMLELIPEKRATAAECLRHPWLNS
T25 sequence (Q07002 whole entry): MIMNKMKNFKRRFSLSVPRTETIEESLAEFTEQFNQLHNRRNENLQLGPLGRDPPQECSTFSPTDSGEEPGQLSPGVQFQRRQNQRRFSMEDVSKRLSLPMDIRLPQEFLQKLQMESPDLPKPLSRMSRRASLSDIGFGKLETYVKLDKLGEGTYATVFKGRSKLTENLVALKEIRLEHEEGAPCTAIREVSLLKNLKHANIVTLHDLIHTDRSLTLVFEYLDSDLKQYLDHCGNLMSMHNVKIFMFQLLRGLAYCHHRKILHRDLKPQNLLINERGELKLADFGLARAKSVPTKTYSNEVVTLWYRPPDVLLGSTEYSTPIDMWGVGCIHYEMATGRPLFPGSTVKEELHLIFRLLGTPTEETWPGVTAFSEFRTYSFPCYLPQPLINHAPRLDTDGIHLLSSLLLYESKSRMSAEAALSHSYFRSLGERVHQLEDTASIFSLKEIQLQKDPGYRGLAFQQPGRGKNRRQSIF
T25 sequence (Q8ND76 whole entry partner): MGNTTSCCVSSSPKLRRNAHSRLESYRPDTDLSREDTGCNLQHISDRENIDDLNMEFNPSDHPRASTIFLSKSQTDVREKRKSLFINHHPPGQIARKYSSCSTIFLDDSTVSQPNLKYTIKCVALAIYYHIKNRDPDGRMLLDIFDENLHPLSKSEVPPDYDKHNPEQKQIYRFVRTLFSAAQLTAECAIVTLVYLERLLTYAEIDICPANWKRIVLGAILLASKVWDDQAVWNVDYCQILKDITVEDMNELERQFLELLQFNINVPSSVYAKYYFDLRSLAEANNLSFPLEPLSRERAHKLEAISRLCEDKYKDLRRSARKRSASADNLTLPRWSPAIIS
T16 sequence (P29322 28-1005): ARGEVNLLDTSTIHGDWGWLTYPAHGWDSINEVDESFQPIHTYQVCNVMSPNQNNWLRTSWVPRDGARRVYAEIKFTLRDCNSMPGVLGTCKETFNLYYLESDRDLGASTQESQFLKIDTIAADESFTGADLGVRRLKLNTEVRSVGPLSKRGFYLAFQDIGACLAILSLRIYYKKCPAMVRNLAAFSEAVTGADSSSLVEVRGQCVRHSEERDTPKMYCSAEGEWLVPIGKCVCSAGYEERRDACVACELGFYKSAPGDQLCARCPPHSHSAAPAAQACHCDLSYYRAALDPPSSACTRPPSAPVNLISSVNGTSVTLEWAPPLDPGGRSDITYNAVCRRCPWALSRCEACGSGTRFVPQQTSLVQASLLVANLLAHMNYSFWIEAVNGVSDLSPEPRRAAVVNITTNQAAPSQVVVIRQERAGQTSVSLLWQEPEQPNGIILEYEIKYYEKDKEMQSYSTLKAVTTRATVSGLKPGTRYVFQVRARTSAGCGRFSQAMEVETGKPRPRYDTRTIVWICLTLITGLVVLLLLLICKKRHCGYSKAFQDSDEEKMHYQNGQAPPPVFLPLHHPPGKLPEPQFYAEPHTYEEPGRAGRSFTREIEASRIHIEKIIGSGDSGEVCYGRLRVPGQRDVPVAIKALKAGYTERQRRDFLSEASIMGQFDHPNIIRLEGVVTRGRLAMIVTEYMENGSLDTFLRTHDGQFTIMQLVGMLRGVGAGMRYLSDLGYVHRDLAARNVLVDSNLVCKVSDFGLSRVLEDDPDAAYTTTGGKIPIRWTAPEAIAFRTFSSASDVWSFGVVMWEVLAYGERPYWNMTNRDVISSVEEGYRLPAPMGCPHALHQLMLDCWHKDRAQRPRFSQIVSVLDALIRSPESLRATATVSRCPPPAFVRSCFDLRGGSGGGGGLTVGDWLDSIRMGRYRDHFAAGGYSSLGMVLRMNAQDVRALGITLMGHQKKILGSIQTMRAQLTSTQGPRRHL
T14 sequence (Q13976 1-686 isoform Q13976-2): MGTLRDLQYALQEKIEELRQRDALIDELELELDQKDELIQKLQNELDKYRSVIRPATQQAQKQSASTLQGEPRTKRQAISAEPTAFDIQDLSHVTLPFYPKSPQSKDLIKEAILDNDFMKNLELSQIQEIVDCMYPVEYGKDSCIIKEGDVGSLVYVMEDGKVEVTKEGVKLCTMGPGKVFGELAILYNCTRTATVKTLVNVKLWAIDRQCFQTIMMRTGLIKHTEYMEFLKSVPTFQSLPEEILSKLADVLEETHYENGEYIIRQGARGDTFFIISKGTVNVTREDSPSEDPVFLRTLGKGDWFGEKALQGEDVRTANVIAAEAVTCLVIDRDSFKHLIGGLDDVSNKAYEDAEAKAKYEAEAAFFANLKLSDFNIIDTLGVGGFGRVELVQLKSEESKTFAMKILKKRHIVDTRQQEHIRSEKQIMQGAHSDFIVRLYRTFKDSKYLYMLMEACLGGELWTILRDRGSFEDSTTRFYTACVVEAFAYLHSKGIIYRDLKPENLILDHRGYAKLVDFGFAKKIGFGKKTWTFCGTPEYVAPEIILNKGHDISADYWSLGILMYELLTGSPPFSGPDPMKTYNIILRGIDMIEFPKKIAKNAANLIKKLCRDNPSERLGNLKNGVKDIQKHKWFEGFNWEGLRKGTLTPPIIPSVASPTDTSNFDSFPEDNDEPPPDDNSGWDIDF
T2 sequence (Q86SG6 whole entry): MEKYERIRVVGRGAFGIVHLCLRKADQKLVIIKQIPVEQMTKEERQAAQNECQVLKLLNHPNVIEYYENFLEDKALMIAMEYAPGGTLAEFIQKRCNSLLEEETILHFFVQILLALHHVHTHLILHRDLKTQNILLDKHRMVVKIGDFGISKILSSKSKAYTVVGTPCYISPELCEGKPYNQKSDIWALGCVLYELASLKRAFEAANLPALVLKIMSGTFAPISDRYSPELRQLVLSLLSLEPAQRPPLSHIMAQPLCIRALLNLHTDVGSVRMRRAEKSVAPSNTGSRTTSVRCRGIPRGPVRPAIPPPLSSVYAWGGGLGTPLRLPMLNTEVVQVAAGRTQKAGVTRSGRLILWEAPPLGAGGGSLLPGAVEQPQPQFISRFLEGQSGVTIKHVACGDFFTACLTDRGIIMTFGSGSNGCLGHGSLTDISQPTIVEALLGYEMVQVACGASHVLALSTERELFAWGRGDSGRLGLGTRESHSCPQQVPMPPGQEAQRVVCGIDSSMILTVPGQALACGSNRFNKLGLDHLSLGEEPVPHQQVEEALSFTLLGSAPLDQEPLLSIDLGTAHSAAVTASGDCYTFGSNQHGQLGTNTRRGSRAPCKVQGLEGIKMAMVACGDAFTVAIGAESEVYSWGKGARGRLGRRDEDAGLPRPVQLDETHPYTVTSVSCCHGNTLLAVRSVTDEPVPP
T30 sequence (O43293 whole entry): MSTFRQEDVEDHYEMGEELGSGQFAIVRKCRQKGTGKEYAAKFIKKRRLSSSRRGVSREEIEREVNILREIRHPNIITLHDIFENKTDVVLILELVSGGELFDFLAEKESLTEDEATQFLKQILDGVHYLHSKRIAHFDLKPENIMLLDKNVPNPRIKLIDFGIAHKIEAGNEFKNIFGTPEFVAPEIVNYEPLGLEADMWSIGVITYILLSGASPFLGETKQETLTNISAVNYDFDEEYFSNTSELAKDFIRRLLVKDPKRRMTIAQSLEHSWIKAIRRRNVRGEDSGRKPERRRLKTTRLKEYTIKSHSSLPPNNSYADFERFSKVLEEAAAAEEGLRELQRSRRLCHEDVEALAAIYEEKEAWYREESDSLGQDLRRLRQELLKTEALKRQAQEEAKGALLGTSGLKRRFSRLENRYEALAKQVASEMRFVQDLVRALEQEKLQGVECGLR
T19 sequence (P06239 whole entry): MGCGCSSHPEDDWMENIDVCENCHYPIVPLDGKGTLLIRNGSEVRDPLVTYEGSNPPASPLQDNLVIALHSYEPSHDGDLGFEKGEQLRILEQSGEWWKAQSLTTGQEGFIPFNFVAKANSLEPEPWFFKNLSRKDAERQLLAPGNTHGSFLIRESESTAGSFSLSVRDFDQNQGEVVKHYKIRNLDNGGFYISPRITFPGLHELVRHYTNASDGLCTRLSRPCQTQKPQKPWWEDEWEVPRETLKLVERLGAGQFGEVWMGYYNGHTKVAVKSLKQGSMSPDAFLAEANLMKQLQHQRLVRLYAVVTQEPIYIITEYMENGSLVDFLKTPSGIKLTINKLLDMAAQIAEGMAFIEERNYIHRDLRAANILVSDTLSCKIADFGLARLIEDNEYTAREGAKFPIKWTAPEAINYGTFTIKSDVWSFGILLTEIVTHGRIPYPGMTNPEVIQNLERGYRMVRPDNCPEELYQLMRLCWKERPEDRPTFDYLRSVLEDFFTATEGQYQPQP

Structure (SMILES): Cc1cnc(N[C@H]2CC[C@H](N)CC2)nc1-c1cnc2ccc(-c3ccccc3)cn12 [CDDD11-8]
- remaining activity at 1 µM (MNK1): 76.4%
- remaining activity at 1 µM (NEK8): 72.8%
- remaining activity at 1 µM (JNK1): 105%
- remaining activity at 1 µM (RAF1): 98.1%
- remaining activity at 1 µM (DCAMKL2): 108%
- remaining activity at 1 µM (ALK4/ACVR1B): 95.3%
- remaining activity at 1 µM (STK21/CIT): 85.9%
- remaining activity at 1 µM (GRK3): 91.9%
- remaining activity at 1 µM (EGFR): 82.2%
- remaining activity at 1 µM (RIPK3): 97.5%
- remaining activity at 1 µM (PBK/TOPK): 102%
- remaining activity at 1 µM (ALK1/ACVRL1): 96.9%
- remaining activity at 1 µM (SLK/STK2): 89.8%
- remaining activity at 1 µM (PKG1b): 77.5%
- remaining activity at 1 µM (MYO3A): 87.3%
- remaining activity at 1 µM (EPHA8): 83.5%
- remaining activity at 1 µM (CDK9/cyclin K): 6.4%
- remaining activity at 1 µM (ROCK1): 76.3%
- remaining activity at 1 µM (LCK): 72.5%
- remaining activity at 1 µM (KDR/VEGFR2): 86.9%
- remaining activity at 1 µM (BRAF): 99.7%
- remaining activity at 1 µM (ALK3/BMPR1A): 98%
- remaining activity at 1 µM (SRPK1): 94%
- remaining activity at 1 µM (BRK): 87.4%
- remaining activity at 1 µM (CDK18/cyclin Y (PCTK3)): 100%
- remaining activity at 1 µM (IRAK1): 91.9%
- remaining activity at 1 µM (CDK7/cyclin H): 63.7%
- remaining activity at 1 µM (MST3/STK24): 103%
- remaining activity at 1 µM (STK39/STLK3): 45.7%
- remaining activity at 1 µM (ZIPK/DAPK3): 102%

Reference: publication PMC8909834, “An Orally Bioavailable and Highly Efficacious Inhibitor of CDK9/FLT3 for the Treatment of Acute Myeloid Leukemia” (Cancers, 2022)
